Results from patent US9169254B2, “Spiroimidazolone derivative” (Chugai Seiyaku Kabushiki Kaisha, priority 2009, dated 2015).

Target: T1, human PTH1 receptor (Homo sapiens, UniProt Q03431)
T1 sequence (Q03431 27-593): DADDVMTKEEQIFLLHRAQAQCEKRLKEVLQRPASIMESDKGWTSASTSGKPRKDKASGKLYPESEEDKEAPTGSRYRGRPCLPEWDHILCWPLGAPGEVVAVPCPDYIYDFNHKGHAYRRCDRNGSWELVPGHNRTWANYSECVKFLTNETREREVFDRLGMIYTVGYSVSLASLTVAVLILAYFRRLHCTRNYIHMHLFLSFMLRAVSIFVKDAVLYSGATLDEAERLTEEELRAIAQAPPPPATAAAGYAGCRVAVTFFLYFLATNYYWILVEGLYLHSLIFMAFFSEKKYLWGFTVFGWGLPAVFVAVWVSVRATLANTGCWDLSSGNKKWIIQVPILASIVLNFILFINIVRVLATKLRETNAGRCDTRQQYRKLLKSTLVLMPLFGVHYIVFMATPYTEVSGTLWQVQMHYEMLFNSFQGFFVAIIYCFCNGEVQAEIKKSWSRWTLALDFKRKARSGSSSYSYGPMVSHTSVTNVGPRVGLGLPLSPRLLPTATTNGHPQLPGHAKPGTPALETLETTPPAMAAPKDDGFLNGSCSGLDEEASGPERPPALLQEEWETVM
Assay: In vitro cAMP signal activity in HKRK-B7 cells (LLC-PK1 cells overexpressing the human PTH1 receptor)
Assay type: cell-based
Conditions: HKRK-B7 cells; compound at 1×10^−3 M; cAMP produced as percentage of that produced by hPTH(1-34) at 100 nM

cAMP production activity (%) | SMILES
104% | Cc1cc(C(=O)N2CCC(C)(O)CC2)cc(C)c1/C=C/S(=O)(=O)N1CCC2(CC1)N=C(c1ccc(S(F)(F)(F)(F)F)cc1)NC2=O [Compound 1189, 8-{(E)-2-[4-(4-hydroxy-4-methyl-piperidine-1-carbonyl)-2,6-dimethyl-phenyl]-ethenesulfonyl}-2-(4-pentafluorosulfanyl-phenyl)-1,3,8-triaza-spiro[4.5]dec-1-en-4-one]
108% | Cc1cc(C(=O)N2CCC(C)(O)CC2)cc(C)c1/C=C/S(=O)(=O)N1CCC2(CC1)N=C(c1cccc(S(F)(F)(F)(F)F)c1)NC2=O [Compound 1190, 8-{(E)-2-[4-(4-hydroxy-4-methyl-piperidine-1-carbonyl)-2,6-dimethyl-phenyl]-ethenesulfonyl}-2-(3-pentafluorosulfanyl-phenyl)-1,3,8-triaza-spiro[4.5]dec-1-en-4-one]
66% | Cc1cc(C(=O)N2CCC(C)(O)CC2)cc(C)c1/C=C/S(=O)(=O)N1CCC2(CC1)N=C(c1ccc(COc3cccc(C(F)(F)F)c3)cc1)NC2=O [Compound 1191, 8-{(E)-2-[4-(4-hydroxy-4-methyl-piperidine-1-carbonyl)-2,6-dimethyl-phenyl]-ethenesulfonyl}-2-[4-(3-trifluoromethyl-phenoxymethyl)-phenyl]-1,3,8-triaza-spiro[4.5]dec-1-en-4-one]
100% | Cc1cc(C(=O)N2CCC(C)(O)CC2)cc(C)c1/C=C/S(=O)(=O)N1CCC2(CC1)N=C(c1ccc(F)c(C)c1C)NC2=O [Compound 1192, 2-(4-fluoro-2,3-dimethyl-phenyl)-8-{(E)-2-[4-(4-hydroxy-4-methyl-piperidine-1-carbonyl)-2,6-dimethyl-phenyl]-ethenesulfonyl}-1,3,8-triaza-spiro[4.5]dec-1-en-4-one]
86% | Cc1cc(C2=NC3(CCN(S(=O)(=O)/C=C/c4c(C)cc(C(=O)N5CCC(C)(O)CC5)cc4C)CC3)C(=O)N2)ccc1C(F)(F)F [Compound 1193, 8-{(E)-2-[4-(4-hydroxy-4-methyl-piperidine-1-carbonyl)-2,6-dimethyl-phenyl]-ethenesulfonyl}-2-(3-methyl-4-trifluoromethyl-phenyl)-1,3,8-triaza-spiro[4.5]dec-1-en-4-one]
62% | Cc1cc(C(=O)N2CCC(C)(O)CC2)cc(C)c1/C=C/S(=O)(=O)N1CCC2(CC1)N=C(c1ccc3c(c1)OCO3)NC2=O [Compound 1194, 2-benzo[1,3]dioxol-5-yl-8-{(E)-2-[4-(4-hydroxy-4-methyl-piperidine-1-carbonyl)-2,6-dimethyl-phenyl]-ethenesulfonyl}-1,3,8-triaza-spiro[4.5]dec-1-en-4-one]
82% | Cc1cc(C(=O)N2CCC(C)(O)CC2)cc(C)c1/C=C/S(=O)(=O)N1CCC2(CC1)N=C(c1ccc(C(F)(F)C(F)(F)F)cc1)NC2=O [Compound 1195, 8-{(E)-2-[4-(4-hydroxy-4-methyl-piperidine-1-carbonyl)-2,6-dimethyl-phenyl]-ethenesulfonyl}-2-(4-pentafluoroethyl-phenyl)-1,3,8-triaza-spiro[4.5]dec-1-en-4-one]
76% | Cc1cc(C(=O)N2CCC(C)(O)CC2)cc(C)c1/C=C/S(=O)(=O)N1CCC2(CC1)N=C(c1cccc(C(F)(F)C(F)(F)F)c1)NC2=O [Compound 1196, 8-{(E)-2-[4-(4-hydroxy-4-methyl-piperidine-1-carbonyl)-2,6-dimethyl-phenyl]-ethenesulfonyl}-2-(3-pentafluoroethyl-phenyl)-1,3,8-triaza-spiro[4.5]dec-1-en-4-one]
74% | Cc1cc(C(=O)N2CCC(C)(O)CC2)cc(C)c1/C=C/S(=O)(=O)N1CCC2(CC1)N=C(c1ccc(OC(C)(C)C(F)(F)F)c(C(F)(F)F)c1)NC2=O [Compound 1197, 8-{(E)-2-[4-(4-hydroxy-4-methyl-piperidine-1-carbonyl)-2,6-dimethyl-phenyl]-ethenesulfonyl}-2-[4-(2,2,2-trifluoro-1,1-dimethyl-ethoxy)-3-trifluoromethyl-phenyl]-1,3,8-triaza-spiro[4.5]dec-1-en-4-one]
88% | Cc1cc(C(=O)N2CCC(C)(O)CC2)cc(C)c1/C=C/S(=O)(=O)N1CCC2(CC1)N=C(c1ccc(OC(F)(F)F)cc1)NC2=O [Compound 1198, 8-{(E)-2-[4-(4-hydroxy-4-methyl-piperidine-1-carbonyl)-2,6-dimethyl-phenyl]-ethenesulfonyl}-2-(4-trifluoromethoxy-phenyl)-1,3,8-triaza-spiro[4.5]dec-1-en-4-one]
77% | Cc1cc(C(=O)N2CCC(C)(O)CC2)cc(C)c1/C=C/S(=O)(=O)N1CCC2(CC1)N=C(c1ccc(OCC(F)(F)C(F)F)c(C(F)(F)F)c1)NC2=O [Compound 1199, 8-{(E)-2-[4-(4-hydroxy-4-methyl-piperidine-1-carbonyl)-2,6-dimethyl-phenyl]-ethenesulfonyl}-2-[4-(2,2,3,3-tetrafluoro-propoxy)-3-trifluoromethyl-phenyl]-1,3,8-triaza-spiro[4.5]dec-1-en-4-one]
73% | Cc1cc(C(=O)N2CCC(C)(O)CC2)cc(C)c1/C=C/S(=O)(=O)N1CCC2(CC1)N=C(c1ccc(OCC(F)(F)F)c(C(F)(F)F)c1)NC2=O [Compound 1200, 8-{(E)-2-[4-(4-hydroxy-4-methyl-piperidine-1-carbonyl)-2,6-dimethyl-phenyl]-ethenesulfonyl}-2-[4-(2,2,2-trifluoro-ethoxy)-3-trifluoromethyl-phenyl]-1,3,8-triaza-spiro[4.5]dec-1-en-4-one]
77% | Cc1cc(C(=O)N2CCC(C)(O)CC2)cc(C)c1/C=C/S(=O)(=O)N1CCC2(CC1)N=C(c1ccc(OCC(F)(F)C(F)F)c(Cl)c1)NC2=O [Compound 1201, 2-[3-chloro-4-(2,2,3,3-tetrafluoro-propoxy)-phenyl]-8-{(E)-2-[4-(4-hydroxy-4-methyl-piperidine-1-carbonyl)-2,6-dimethyl-phenyl]-ethenesulfonyl}-1,3,8-triaza-spiro[4.5]dec-1-en-4-one]
91% | Cc1cc(C(=O)N2CCC(C)(O)CC2)cc(C)c1/C=C/S(=O)(=O)N1CCC2(CC1)N=C(c1ccc(OCCCC(F)(F)C(F)(F)F)c(C(F)(F)F)c1)NC2=O [Compound 1202, 8-{(E)-2-[4-(4-hydroxy-4-methyl-piperidine-1-carbonyl)-2,6-dimethyl-phenyl]-ethenesulfonyl}-2-[4-(4,4,5,5,5-pentafluoro-pentyloxy)-3-trifluoromethyl-phenyl]-1,3,8-triaza-spiro[4.5]dec-1-en-4-one]
90% | Cc1cc(C(=O)N2CCC(C)(O)CC2)cc(C)c1/C=C/S(=O)(=O)N1CCC2(CC1)N=C(c1ccc(OCC(F)(F)C(F)(F)F)c(C(F)(F)F)c1)NC2=O [Compound 1203, 8-{(E)-2-[4-(4-hydroxy-4-methyl-piperidine-1-carbonyl)-2,6-dimethyl-phenyl]-ethenesulfonyl}-2-[4-(2,2,3,3,3-pentafluoro-propoxy)-3-trifluoromethyl-phenyl]-1,3,8-triaza-spiro[4.5]dec-1-en-4-one]
83% | Cc1cc(C(=O)N2CCC(C)(O)CC2)cc(C)c1/C=C/S(=O)(=O)N1CCC2(CC1)N=C(c1cccc(COc3cccc(C(F)(F)F)c3)c1)NC2=O [Compound 1205, 8-{(E)-2-[4-(4-hydroxy-4-methyl-piperidine-1-carbonyl)-2,6-dimethyl-phenyl]-ethenesulfonyl}-2-[3-(3-trifluoromethyl-phenoxymethyl)-phenyl]-1,3,8-triaza-spiro[4.5]dec-1-en-4-one]
88% | Cc1cc(C(=O)N2CCC(C)(O)CC2)cc(C)c1/C=C/S(=O)(=O)N1CCC2(CC1)N=C(c1cccc(C(C)(F)F)c1)NC2=O [Compound 1206, 2-[3-(1,1-difluoro-ethyl)-phenyl]-8-{(E)-2-[4-(4-hydroxy-4-methyl-piperidine-1-carbonyl)-2,6-dimethyl-phenyl]-ethenesulfonyl}-1,3,8-triaza-spiro[4.5]dec-1-en-4-one]
112% | Cc1cc(C(=O)N2CCC(C)(O)CC2)cc(C)c1/C=C/S(=O)(=O)N1CCC2(CC1)N=C(c1ccc(OCCCC(F)(F)C(F)(F)F)c(F)c1)NC2=O [Compound 1207, 2-[3-fluoro-4-(4,4,5,5,5-pentafluoro-pentyloxy)-phenyl]-8-{(E)-2-[4-(4-hydroxy-4-methyl-piperidine-1-carbonyl)-2,6-dimethyl-phenyl]-ethenesulfonyl}-1,3,8-triaza-spiro[4.5]dec-1-en-4-one]
65% | Cc1cc(C(=O)N2CCC(C)(O)CC2)cc(C)c1/C=C/S(=O)(=O)N1CCC2(CC1)N=C(c1ccc3cc[nH]c3c1)NC2=O [Compound 1208, 8-{(E)-2-[4-(4-hydroxy-4-methyl-piperidine-1-carbonyl)-2,6-dimethyl-phenyl]-ethenesulfonyl}-2-(1H-indol-6-yl)-1,3,8-triaza-spiro[4.5]dec-1-en-4-one]

SMILES | cAMP production activity (%)
Cc1cc(C(=O)N2CCC(C)(O)CC2)cc(C)c1/C=C/S(=O)(=O)N1CCC2(CC1)N=C(c1ccc(OCCCC(F)(F)F)c(C(F)(F)F)c1)NC2=O [Compound 1204, 8-{(E)-2-[4-(4-hydroxy-4-methyl-piperidine-1-carbonyl)-2,6-dimethyl-phenyl]-ethenesulfonyl}-2-[4-(4,4,4-trifluoro-butoxy)-3-trifluoromethyl-phenyl]-1,3,8-triaza-spiro[4.5]dec-1-en-4-one] | 83%
